Source: patent US8178523B2, “Compounds for the treatment of hepatitis C” (Bristol-Myers Squibb Company, priority 2008, dated 2012)

Columns and labels:
HCV replicon cells = assay: HCV replicon FRET / luciferase assay; format: cell-based; details: Hepatitis C virus, 50% reduction in FRET or luciferase activity
Method: FRET Assay Preparation. The HCV FRET screening assay was performed in 96-well cell culture plates. The FRET peptide (Anaspec, Inc.) (Taliani et al., Anal. Biochem. 1996, 240, 60-67) contains a fluorescence donor, EDANS, near one end of the peptide and an acceptor, DABCYL, near the other end. The fluorescence of the peptide is quenched by […] resonance energy transfer (RET) between the donor and the acceptor, but as the NS3 protease cleaves the peptide the products are released from RET quenching and the fluorescence of the donor becomes apparent. The assay reagent was made as follows: 5× cell Luciferase cell culture lysis reagent from Promega (#E153A) diluted to 1× with dH2O, NaCl added to 150 mM final, the FRET peptide diluted to 20 μM final from a 2 mM stock.
To prepare plates, HCV replicon cells, with or without a Renilla luciferase reporter gene, were trypsinized and plated in a 96-well plate with titrated test compounds added in columns 3 through 12; columns 1 and 2 contained a control compound (HCV control inhibitor), and the bottom row contained cells with DMSO only. The plates were then placed in a CO2 incubator at 37° C.
Assays. Subsequent to addition of the test compounds described above (FRET Assay Preparation), at various times the plate was removed and Alamar blue solution (Trek Diagnostics, #00-100) was added to measure cellular toxicity. After reading in a Cytoflour 4000 instrument (PE Biosystems), plates were rinsed with PBS and then used for FRET assay by the addition of 30 ul of the FRET peptide assay reagent described above (FRET Assay Preparation) per well. The plate was then placed into the Cytoflour 4000 instrument which had been set to 340 excite/490 emission, automatic mode for up to 20 cycles and the plate read in a kinetic mode. Typically, the signal to noise using an endpoint analysis after the reads was at least three-fold. Alternatively, after Alamar blue reading, plates were rinsed with PBS, then used for luciferase assay using the Promega Dual-Glo Luciferase Assay System or the Promega EnduRen Live Cell Substrate assay.
Compound analysis was performed by quantification of the relative HCV replicon inhibition and the relative cytotoxicity values. To calculate cytoxicity values, the average Alamar Blue fluorescence signals from the control wells were set as 100% non-toxic. The individual signals in each of the compound test wells were then divided by the average control signal and multiplied by 100% to determine […]. To calculate the HCV replicon inhibition values, an average background value was obtained from the two wells containing the highest amount of HCV control inhibitor at the end of the assay period. These numbers were similar to those obtained from naïve Huh-7 cells. The background numbers were then subtracted from the average signal obtained from the control wells and this number was used as 100% activity. The individual signals in each of the compound test wells were then divided by the averaged control values after background subtraction and multiplied by 100% to determine percent activity. EC50 values were calculated as the concentration which caused a 50% reduction in FRET or luciferase activity. The two numbers generated for the compound plate, percent cytoxicity and percent activity, were used to determine compounds of interest for further analysis.

HCV NS5B RdRp = biological target: T1, HCV NS5B RdRp (Hepatitis C virus genotype 1b, UniProt Q9WMX2); assay: HCV NS5B RdRp enzyme assay; format: biochemical; details: HCV NS5B genotype 1b, standard or modified RdRp assay not given
T1 construct: The protein was expressed with an 18 amino acid C-terminal truncation to enhance the solubility; made in house; host or cells: E. coli BL21(DE3)
T1 sequence (Q9WMX2 2420-2992): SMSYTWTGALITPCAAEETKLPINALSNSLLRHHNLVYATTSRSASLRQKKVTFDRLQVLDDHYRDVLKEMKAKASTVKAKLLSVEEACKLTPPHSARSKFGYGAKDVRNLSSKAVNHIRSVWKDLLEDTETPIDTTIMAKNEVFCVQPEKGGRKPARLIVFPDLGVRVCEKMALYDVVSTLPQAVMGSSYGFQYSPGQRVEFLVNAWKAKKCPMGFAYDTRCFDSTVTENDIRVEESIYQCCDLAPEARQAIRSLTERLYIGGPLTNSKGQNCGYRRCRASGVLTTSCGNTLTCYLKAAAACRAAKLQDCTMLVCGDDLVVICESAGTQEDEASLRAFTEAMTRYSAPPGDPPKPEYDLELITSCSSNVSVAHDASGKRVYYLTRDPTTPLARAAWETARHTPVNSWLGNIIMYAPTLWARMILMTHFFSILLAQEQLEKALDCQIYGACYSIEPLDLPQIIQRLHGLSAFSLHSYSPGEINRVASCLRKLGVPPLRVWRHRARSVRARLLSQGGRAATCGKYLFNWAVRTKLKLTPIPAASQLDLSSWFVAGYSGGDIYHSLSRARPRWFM
Method: HCV NS5B RdRp cloning, expression, and purification. The cDNA encoding the NS5B protein of HCV, genotype 1b, was cloned into the pET21a expression vector. The protein was expressed with an 18 amino acid C-terminal truncation to enhance the solubility. The E. coli competent cell line BL21(DE3) was used for expression of the protein. Cultures were grown at 37° C. for ˜4 hours until the cultures reached an optical density of 2.0 at 600 nm. The cultures were cooled to 20° C. and induced with 1 mM […]. Fresh ampicillin was added to a final concentration of 50 μg/ml and the cells were grown overnight at 20° C.
Cell pellets (3 L) were lysed for purification to yield 15-24 mgs of purified NS5B. The lysis buffer consisted of 20 mM Tris-HCl, pH 7.4, 500 mM NaCl, 0.5% triton X-100, 1 mM DTT, 1 mM EDTA, 20% glycerol, 0.5 mg/ml lysozyme, 10 mM MgCl2, 15 ug/ml deoxyribonuclease I, and Complete TM protease inhibitor tablets (Roche). After addition of the lysis buffer, frozen cell pellets were resuspended using a tissue homogenizer. To reduce the viscosity of the sample, aliquots of the lysate were sonicated on ice using a microtip attached to a Branson sonicator. The sonicated lysate was centrifuged at 100,000×g for 1 hr at 4° C. and filtered through a 0.2 μm filter unit (Corning).
The protein was purified using two sequential chromatography steps: Heparin sepharose CL-6B and polyU sepharose 4B (Pharmacia). The chromatography buffers were identical to the lysis buffer but contained no lysozyme, deoxyribonuclease I, MgCl2 or protease inhibitor and the NaCl concentration of the buffer was adjusted according to the requirements for charging the protein onto the column. Each column was eluted with a NaCl gradient which varied in length from 5-50 column volumes depending on the column type. After the final chromatography step, the resulting purity of the enzyme is >90% based on SDS-PAGE analysis. The enzyme was aliquoted and stored at −80° C.
Standard HCV NS5B RdRp enzyme assay. HCV RdRp genotype 1b assays were run in a final volume of 60 μl in 96 well plates (Corning 3600). The assay buffer is composed of 20 mM Hepes, pH 7.5, 2.5 mM KCl, 2.5 mM MgCl2, 1 mM DTT, 1.6 U RNAse inhibitor (Promega N2515), 0.01 mg/ml BSA (Sigma B6917), and 2% glycerol. All compounds were serially diluted (3-fold) in DMSO and diluted further in water such that the final concentration of DMSO in the assay was 2%. HCV RdRp genotype 1b enzyme was used at a final concentration of 28 nM. A polyA template was used at 6 nM, and a biotinylated oligo-dT12 primer was used at 180 nM final concentration. Template was obtained commercially (Amersham 27-4110). Biotinylated primer was prepared by Sigma Genosys. 3H-UTP was used at (0.29 μM total UTP). Reactions were initiated by the addition of enzyme, incubated at 30° C. for 60 min, and stopped by adding 25 μl of 50 mM EDTA containing SPA beads (4 μg/μl, Amersham RPNQ 0007). Plates were read on a Packard Top Count NXT after >1 hr incubation at room temperature.
Modified HCV NS5B RdRp enzyme assay. A modified enzyme assay was performed essentially as described for the standard enzyme assay except for the following: The biotinylated oligo dT12 primer was precaptured on streptavidin-coated SPA beads by mixing primer and beads in assay buffer and incubating at room temperature for one hour. Unbound primer was removed after centrifugation. The primer-bound beads were resuspended in 20 mM Hepes buffer, pH 7.5 and used in the assay at final concentrations of 20 nM primer and […] beads. Order of addition in the assay: enzyme (1.75 nM) was added to diluted compound followed by the addition of a mixture of template (0.36 nM), 3H-UTP (0.6 μCi, 0.29 μM), and primer-bound beads, to initiate the reaction; concentrations given are final. Reactions were allowed to proceed for 4 hours at 30° C.
IC50 values for compounds were determined using seven different [I]. […]

SMILES	EC50 (HCV replicon cells; class symbols) [nM]	IC50 (HCV NS5B RdRp; class symbols) [nM]	EC50 (HCV replicon cells; numeric values) [nM]	IC50 (HCV NS5B RdRp; numeric values) [nM]
COc1ccc2c(c1)C1CC1(C(=O)N1CCC(c3c[nH]c4ccccc34)CC1)Cn1c-2c(C2CCCCC2)c2ccc(C(=O)NS(=O)(=O)C(C)C)cc21 (stereo not shown)	2 to 500	2 to 500		
COc1ccc2c(c1)C1CC1(C(=O)N1CCC(c3nncn3C)CC1)Cn1c-2c(C2CCCCC2)c2ccc(C(=O)NS(=O)(=O)N(C)C)cc21 (stereo not shown)	2 to 500	2 to 500		
COc1ccc2c(c1)C1CC1(C(=O)N1CCC(n3cc(-c4ccc(Cl)cc4)cn3)CC1)Cn1c-2c(C2CCCCC2)c2ccc(C(=O)NS(=O)(=O)N(C)C)cc21 (stereo not shown)	2 to 500	2 to 500		
COc1ccc2c(c1)C1CC1(C(=O)N1CCC(c3nc4ccccc4o3)CC1)Cn1c-2c(C2CCCCC2)c2ccc(C(=O)NS(=O)(=O)N(C)C)cc21 (stereo not shown)	2 to 500	2 to 500		
COc1ccc2c(c1)C1CC1(C(=O)N1CCC(c3cc(-c4ccco4)n[nH]3)CC1)Cn1c-2c(C2CCCCC2)c2ccc(C(=O)NS(=O)(=O)N(C)C)cc21 (stereo not shown)	2 to 500	2 to 500		
COc1ccc2c(c1)C1CC1(C(=O)N1CCC(n3cc(-c4ccccc4Cl)cn3)CC1)Cn1c-2c(C2CCCCC2)c2ccc(C(=O)NS(=O)(=O)N(C)C)cc21 (stereo not shown)	2 to 500	2 to 500		
COc1ccc2c(c1)C1CC1(C(=O)N1CCC(c3nnc(-c4ccccc4)o3)CC1)Cn1c-2c(C2CCCCC2)c2ccc(C(=O)NS(=O)(=O)N(C)C)cc21 (stereo not shown)	2 to 500	2 to 500		
CCc1nnc(C2CCN(C(=O)C34CC3c3cc(OC)ccc3-c3c(C5CCCCC5)c5ccc(C(=O)NS(=O)(=O)C(C)C)cc5n3C4)CC2)o1 (stereo not shown)	2 to 500	2 to 500		
COc1ccc2c(c1)[C@@H]1C[C@]1(C(=O)N1CCC(c3nnc(C)o3)CC1)Cn1c-2c(C2CCCCC2)c2ccc(C(=O)NS(=O)(=O)N(C)C)cc21			30	30
COc1ccc2c(c1)C1CC1(C(=O)N1CCC(c3noc4cc(F)ccc34)CC1)Cn1c-2c(C2CCCCC2)c2ccc(C(=O)N[S+]([O-])N(C)C)cc21 (stereo not shown)	2 to 500	2 to 500		
COc1ccc2c(c1)C=C(C(=O)N1CCC(c3nncn3C)CC1)Cn1c-2c(C2CCCCC2)c2ccc(C(=O)NS(=O)(=O)N(C)C)cc21	2 to 500	2 to 500		
COc1ccc2c(c1)C=C(C(=O)N1CCCCC1c1nc(C(C)C)no1)Cn1c-2c(C2CCCCC2)c2ccc(C(=O)NS(=O)(=O)N(C)C)cc21 (stereo not shown)			1000	150
COc1ccc2c(c1)C1CC1(C(=O)N1CCC(c3nnc(N)s3)CC1)Cn1c-2c(C2CCCCC2)c2ccc(C(=O)NS(=O)(=O)N(C)C)cc21 (stereo not shown)			190	60
COc1ccc2c(c1)C1CC1(C(=O)N1CCCCC1c1nc(C(C)C)no1)Cn1c-2c(C2CCCCC2)c2ccc(C(=O)NS(=O)(=O)N(C)C)cc21 (stereo not shown)	2 to 500	2 to 500		
COc1ccc2c(c1)C1CC1(C(=O)N1CCC(c3nnc(C)o3)CC1)Cn1c-2c(C2CCCCC2)c2ccc(C(=O)NS(=O)(=O)C(C)C)cc21 (stereo not shown)			110	70
CCCc1noc(C2CCN(C(=O)C34CC3c3cc(OC)ccc3-c3c(C5CCCCC5)c5ccc(C(=O)NS(=O)(=O)N(C)C)cc5n3C4)CC2)n1 (stereo not shown)	2 to 500	2 to 500		
COc1ccc(-c2cnn(C3CCN(C(=O)C45CC4c4cc(OC)ccc4-c4c(C6CCCCC6)c6ccc(C(=O)NS(=O)(=O)N(C)C)cc6n4C5)CC3)c2)cc1 (stereo not shown)	2 to 500	2 to 500		
COc1ccc2c(c1)C=C(C(=O)N1CCC(c3nc(C)no3)CC1)Cn1c-2c(C2CCCCC2)c2ccc(C(=O)NS(=O)(=O)N(C)C)cc21			230	90
COc1ccc2c(c1)C1CC1(C(=O)N1CCC(c3nc4cc(C)ccc4[nH]3)CC1)Cn1c-2c(C2CCCCC2)c2ccc(C(=O)NS(=O)(=O)N(C)C)cc21 (stereo not shown)	2 to 500	2 to 500		
COc1ccc2c(c1)C1CC1(C(=O)N1CCC(n3c(C)nnc3C)CC1)Cn1c-2c(C2CCCCC2)c2ccc(C(=O)NS(=O)(=O)N(C)C)cc21 (stereo not shown)	2 to 500	2 to 500		
CCOC(=O)c1coc(C2CCN(C(=O)C34CC3c3cc(OC)ccc3-c3c(C5CCCCC5)c5ccc(C(=O)NS(=O)(=O)N(C)C)cc5n3C4)CC2)n1 (stereo not shown)	2 to 500	2 to 500		
COc1ccc2c(c1)C1CC1(C(=O)N1CCC(n3cc(-c4ccccc4)cn3)CC1)Cn1c-2c(C2CCCCC2)c2ccc(C(=O)NS(=O)(=O)N(C)C)cc21 (stereo not shown)	2 to 500	2 to 500		
COc1ccc2c(c1)C1CC1(C(=O)N1CCC(c3nnc(C(C)C)o3)CC1)Cn1c-2c(C2CCCCC2)c2ccc(C(=O)NS(=O)(=O)C(C)C)cc21 (stereo not shown)	2 to 500	2 to 500		
